Laboratory results taken from ChEMBL document CHEMBL3507680, “University of Dundee, Gates Library screen for HepG2 cell viability”.

Test: Human HepG2 cell viability assay in 384 well format
Format: toxicity, cell-based
Parameters: dose 125 nL, time 70.5 hour; cytotoxicity at 70.5 h: concentration not given beside the values
Settings: HepG2 cells, read-out: Inhibition

In order of falling cytotoxicity at 70.5 h:
1. CN(C)C(=O)Cc1ccccc1NCc1cccc2cccnc12  57.4%
2. O=c1c2ccccc2nc2n1C(CSc1ccc(Cl)cc1Cl)CN2 (centres undefined)  29.6%
3. Cc1cccc(CN2CCC3(CCN(Cc4ccccn4)C3)C2=O)c1 (centres undefined)  27.9%
4. CCN(CC)C(=O)[C@@H]1C[C@@H](NC(=O)c2ccoc2)CN1C  25.9%
5. CC(C)(C)c1noc(CCC(=O)N2CCN(Cc3ccc(Cl)s3)CC2)n1  25.8%
6. Cn1nc(C(=O)NC2(c3ccc(Cl)cc3)CCCC2)ccc1=O  24.7%
7. CCCNC(=O)c1cc(C2CCCN(Cc3ccccn3)C2)no1 (centres undefined)  21.2%
8. Cc1nc(C(=O)N[C@H]2COC[C@@H]2N2CCCCC2)cs1  17.8%
9. CCc1csc(C2CCCN(C(=O)CCn3cc(C)cn3)C2)n1 (centres undefined)  17.5%
10. CCOCc1ncn2c1CN(C(=O)Nc1ccccc1CC)CC2  16.8%
11. Cc1nn(C)c2c(N(C)Cc3ccco3)nc(C3CC3)nc12  15.5%
12. CCc1ccccc1NCc1nc2[nH]c(C)c(C)c(=O)n2n1  10.8%
13. O=C([C@@H]1Cc2[nH]cnc2CN1CC1CC1)N1CCCC1  9.33%
14. CCN(CCO)C[C@@H]1CN(C(=O)c2sc3ccccc3c2C)C[C@@H]1CO  8.11%
15. CN(C)[C@@H]1CN(Cc2cnn(C)c2)[C@@H]2COC[C@H]12  7.8%
16. O=C1C[C@@H]2CCN(Cc3ccccc3)C[C@@H]2CCN1C1CCCCC1  6.87%
17. Cc1nc(N(C)C)ncc1C(=O)NCCCn1nccc1C1CC1  6.49%
18. COc1cc(-n2cccc2)c(Cl)cc1C(=O)NS(C)(=O)=O  6%
19. Cc1cc(C(=O)NC(C)C(=O)Nc2cc(F)ccc2C)nc(C)n1 (centres undefined)  5.43%
20. Cc1cc(CN2CCCC2c2noc(C)n2)no1 (centres undefined)  4.25%
21. Cc1ccc(S(=O)(=O)N2Cc3c(CN(C)C)nn(C)c3C2)cc1  3.97%
22. Fc1cccc2ncnc(NCC3(N4CCOCC4)CCSC3)c12 (centres undefined)  3.01%
23. O=C(c1ccc(NCc2cccc(F)c2)cc1)N1CCC(CO)CC1  2.87%
24. OC(CNc1ccc(Cl)cn1)CN1CCOCC1 (centres undefined)  2.86%
25. CC(NCc1nnc2n1CCCC2)c1nc(-c2cccs2)no1 (centres undefined)  2.78%
26. CN1CC(C(=O)NC2(c3ccc(Cl)cc3)CCOCC2)CC1=O (centres undefined)  2.23%
27. NC(=O)c1cc(C2CC2)nc2ccc(F)cc12  2.17%
28. COc1cccn(CC(=O)N(C)CCOc2cc(C)cc(C)c2)c1=O  2.11%
29. COc1cc(CN2CCCC2)ccc1Oc1ccc2c(c1)CC(CN)O2 (centres undefined)  1.9%
30. O=C1CC2(CCCC2)CC(=O)N1Cc1nc2ncccn2n1  1.37%
31. CCn1ncc(CN2C[C@@H]3CCCN3C[C@H]2CCSC)c1C  1.32%
32. COc1ccc(-n2cnnc2CC2CCNCC2)cc1  1.1%
33. Cc1cc(NCCn2cccn2)n2ncnc2n1  0.75%
34. COc1cccc2c1CCN(C(=O)NCc1nnc3ccccn13)C2  0.687%
35. CCn1cc(CN(C)S(=O)(=O)c2ccc(C)c(C)c2)cn1  0.0869%
36. CC(NC(=O)CCn1cccn1)c1cccs1 (centres undefined)  -0.167%
37. Cc1ccc(OCC2CCCN(c3nc(CO)cs3)C2)cc1 (centres undefined)  -0.763%
38. Cc1occc(=O)c1OCC(=O)N1CCN(c2ccccc2)CC1  -0.838%
39. O=C(NCc1ccc(N2CCCC2)nc1)N1CCc2sccc2C1  -0.866%
40. COc1cccc2c1OCC(Cc1ccc(N)nc1C)C2 (centres undefined)  -1.03%
41. CCC1(CC)Cc2ccccc2-c2nc(NCCO)[nH]c(=O)c21  -1.26%
42. CC1c2ncc(CNC(=O)C3CC3)n2CCN1Cc1ccsc1 (centres undefined)  -1.59%
43. CN1CCOC(CNCc2cccc(OCC(F)(F)F)c2)C1 (centres undefined)  -1.74%
44. Cn1ccc(C(=O)N2CCC(Cc3cccc4ncccc34)C2)n1 (centres undefined)  -1.84%
45. Cc1ccc(C2CCCN(S(C)(=O)=O)C2)nc1 (centres undefined)  -2.08%
46. CNC(=O)NCC1CCC2(CCN(C(=O)c3ccccc3)CC2)CO1 (centres undefined)  -2.1%
47. C[C@]1(O)CCN(Cc2cccnc2)C[C@@H]1Oc1cccc(F)c1  -2.19%
48. NC(=O)CN1CCC2(CC1)CC(=O)c1ccc3ccccc3c1O2  -2.33%
49. COCCN1C[C@H](NC(=O)CCC(F)(F)F)[C@@H](C(C)C)C1  -2.58%
50. Cc1nnc(NC(=O)NCc2ccoc2)s1  -2.74%
51. CCOc1ccc(NC(=O)NC2CCc3[nH]ncc3C2)cn1 (centres undefined)  -2.96%
52. CC(C)c1noc(CNc2ccccc2CC(=O)N(C)C)n1  -2.98%
53. O=C(NCC(F)F)c1cnc(C2CCCN2)cn1 (centres undefined)  -3.12%
54. COCC(=O)Nc1cnc(N2CCOCC2)nc1  -3.21%
55. Cc1ccc(CN(CCN(C)C)Cc2ccnn2C2CCCCO2)o1 (centres undefined)  -3.26%
56. Cc1ccccc1C(=O)NC(C)CN1CCOC1=O (centres undefined)  -3.59%
57. CCS(=O)(=O)N1CC(=O)N(CCCc2ccccc2)CC(O)C1 (centres undefined)  -3.91%
58. O=C(O)C1CCCN1c1nc(-c2ccc(Cl)c(Cl)c2)cc(C(F)(F)F)n1 (centres undefined)  -3.95%
59. CC(=O)c1cn(CCC(=O)N[C@H](C(=O)O)C(C)C)c2ccccc12  -4%
60. COc1c(C(=O)NCC(C)C)nnn1Cc1ccccc1  -4.1%
61. Cc1nnc(SCCNC(=O)CC2CCc3ccccc32)s1 (centres undefined)  -4.12%
62. CC(C)(C)c1ncc(CNCC2CCCn3ccnc32)s1 (centres undefined)  -4.17%
63. CCC(CO)N(Cc1cccc(-n2cccn2)c1)Cc1cccs1 (centres undefined)  -4.44%
64. CN(C)C(=O)c1ccc2c(c1)N(C)C(CC(=O)NCc1ccno1)CO2 (centres undefined)  -4.48%
65. O=C([C@H]1CN(Cc2ccoc2)C[C@H]2OCC[C@@H]12)N1CCCCO1  -4.73%
66. CCC1c2ccsc2CCN1C(=O)NCc1cc(C)on1 (centres undefined)  -4.73%
67. O=C(c1cnccn1)N1CCCC2(CCN(Cc3ccc(F)cc3)C2)C1 (centres undefined)  -4.76%
68. CC(=O)c1cccc(NS(=O)(=O)c2cc(C)c(C(=O)O)s2)c1  -4.79%
69. CC(=O)Nc1ccc(SCC(O)COCc2ccc3c(c2)OCO3)cc1 (centres undefined)  -4.91%
70. CCNC(=O)N1CCC(NC(=O)NCCCc2cccc(F)c2)C1 (centres undefined)  -4.92%
71. CN1C(Cn2cccn2)C[C@@H]2CN(Cc3nccs3)CC[C@@H]21 (some centres undefined)  -5.16%
72. CN(CCn1cncc1-c1cnc(N2CCOCC2)nc1)C1CCCC1  -5.17%
73. CCc1noc(CN(C)Cc2cc3ccc(Cl)cc3[nH]c2=O)n1  -5.21%
74. CCc1cc(CNC(=O)N(C2CC2)C(C)c2ccco2)[nH]n1 (centres undefined)  -5.28%
75. COc1ccc(C)cc1CC(=O)N1CC[C@@]2(CCCO2)[C@@H](O)C1  -5.66%
76. O=C(O)c1cnc2c(Br)cccc2c1O  -5.88%
77. CC(C)(C)c1cc(NC(=O)CN2CCCCC2Cn2cncn2)on1 (centres undefined)  -5.88%
78. CN(C)C(=O)C1CCC2(CCN(C(=O)Nc3cccc(F)c3)CC2)O1 (centres undefined)  -5.9%
79. Cc1ccccc1SC1CCN(C(=O)CCCS(N)(=O)=O)CC1  -5.95%
80. Cn1cc(CC(CNC(=O)Nc2cccc(Cl)c2)C(N)=O)cn1 (centres undefined)  -6.01%
81. CC(C)(C)[S+]([O-])CCNC(=O)c1ccc(Cl)c2cccnc12 (centres undefined)  -6.1%
82. O=C(c1ncccn1)N1C[C@H]2CCC[C@@]2(COc2ccccn2)C1  -6.17%
83. CC1CN(S(=O)(=O)c2ccc(F)cc2F)c2cccnc2O1 (centres undefined)  -6.28%
84. O=C(NC1CCN(c2ccccc2Br)C1)c1c[nH]nn1 (centres undefined)  -6.49%
85. CCOCC1C[C@@H]2OCCN(C(=O)c3ccc[nH]3)[C@H]2C1 (some centres undefined)  -6.8%
86. CC(CNc1nccc(C(C)C)n1)Oc1cccnc1 (centres undefined)  -6.89%
87. O=C(C1CCCC1)N1CCCC([C@@H]2C[C@H](C(F)F)n3ncnc3N2)C1 (some centres undefined)  -6.92%
88. CCN1CCC(NC(=O)c2ccc(F)cc2I)CC1  -7.1%
89. Cc1cc(C)c2c(N3CCC(C(=O)N4CCCC4)CC3)ncnc2n1  -7.41%
90. CCSC(C)C(=O)N1CCC(c2nn(C)c(=O)n2-c2ccccc2)CC1 (centres undefined)  -7.97%
91. COCCCN1C(=O)CC[C@H]2CN(c3cc(C(N)=O)ccn3)CC[C@H]21  -7.97%
92. CC(C)(C)CC(=O)N1C[C@@H]2C[C@H]1CN2  -8.19%
93. CSc1ccc(CNC2CCCc3c2cnn3C)cc1 (centres undefined)  -8.39%
94. Cc1nnc(CN2CCCCC2c2nc(-c3ccccc3)no2)s1 (centres undefined)  -8.42%
95. CCOc1cc(C)c(-c2cc(N)[nH]n2)cc1OCC  -8.56%
96. CC(C)Cc1noc(CN2CCC(NC(=O)c3cccs3)CC2)n1  -8.58%
97. CN(C)c1nccnc1C1CCN(C2CCCCC2O)CC1 (centres undefined)  -8.92%
98. COc1cc(N2C[C@@H]3COC[C@]3(COc3ncccc3F)C2)ncn1  -9.91%
99. Cc1cccc(-c2ccc(C(=O)NCC3CCCO3)c(=O)[nH]2)c1 (centres undefined)  -10.2%
100. Cc1cn2nc(Sc3nnc(C(C)C)n3C)sc2n1  -10.9%
101. CCC(=O)c1cccc(S(=O)(=O)NC(C)C#N)c1 (centres undefined)  -11%
102. CC(C)n1c(=O)c2sccc2n(CC(=O)Nc2ccccc2)c1=O  -11%
103. CC(O)CN1CCC(CN(C)Cc2ccc(C#N)cc2)CC1 (centres undefined)  -11%
104. COc1cn(-c2ccccc2)nc1C(=O)NCCCN1CCCC(C)C1 (centres undefined)  -11.2%
105. CCc1ncc(C(=O)NCCNC(=O)Cc2ccc(F)cc2)s1  -11.7%
106. O=C(CCc1nccs1)N1CCCC(n2ccnc2)C1 (centres undefined)  -11.8%
107. Cc1nc(N2CCCC2)nc2c1CN(C(C)C)CC2  -12.7%
108. COCCN1C[C@@H]2CN(Cc3cccc(C)n3)C[C@@H]2C1=O  -13.6%
109. Cc1cc(C(=O)NCC2SCCc3ccccc32)no1 (centres undefined)  -14.4%
110. O=C(Nc1cccnc1)[C@H]1C[C@H]2OCC[C@H]2N(CC2CC2)C1  -14.8%
111. COCCOCCCNC(=O)c1cc(Cl)cc2cccnc12  -18.1%
112. CCn1ncnc1C1CC(=O)NCc2nc(N3CCOCC3)sc21 (centres undefined)  -20.5%
113. Cc1nc(COC[C@@H]2CC[C@H]3[C@H](CCN3c3ccccn3)O2)cs1  -90.1%
114. O=C(CN(CC(O)c1ccc(F)cc1)C1CC1)NC1CCOCC1 (centres undefined)  -91.7%
